Test system: monocistronic NK5.1 HCV replicon in Huh7 cells
Experiment: HCV replicon assay, monocistronic replicon cell line
Assay type: cell-based, hepatitis C virus
Conditions: Hepatitis C virus, Huh-7, 72 h; table T3 (compounds 471-640); monocistronic replicon in Huh7 cells, 3 days incubation, HCV RNA/GAPDH RNA by TaqMan RT-PCR; read-out: Mono EC50 Median
Summary of the method: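 Huh7 cells carrying the monocistronic NK5.1 replicon, seeded 24 h before dosing, were exposed to six-point half-log compound series (0.6% DMSO) for 3 days at 37 °C. Replicon RNA was quantified by TaqMan RT-PCR, normalised to GAPDH and compared with DMSO controls to derive EC50.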

SMILES | EC50
O=[N+]([O-])c1cccnc1-c1n[nH]c(-c2cc(Br)ccc2O)n1 [Compound 556, 4-Bromo-2-[5-(3-nitro-pyridin-2-yl)-2H-[1,2,4]triazol-3-yl]-phenol] | > 3.2 µM
Nc1cccnc1-c1n[nH]c(-c2c(O)ccc3ccccc23)n1 [Compound 557, 1-[5-(3-amino-pyridin-2-yl)-2H-[1,2,4]triazol-3-yl]-naphthalen-2-ol] | > 3.2 µM
O=[N+]([O-])c1cccnc1-c1n[nH]c(-c2c(O)ccc3ccccc23)n1 [Compound 558, 1-[5-(3-Nitro-pyridin-2-yl)-2H-[1,2,4]triazol-3-yl]-naphthalen-2-ol] | > 3.2 µM
CC(C)(C)c1ccc(O)c(-c2nc(-c3ncccn3)n[nH]2)c1 [Compound 559, 4-tert-Butyl-2-(5-pyrimidin-2-yl-2H-[1,2,4]triazol-3-yl)-phenol] | > 32 µM
O=[N+]([O-])c1ccc(O)c(-c2nc(-c3ncccn3)n[nH]2)c1 [Compound 560, 4-Nitro-2-(5-pyrimidin-2-yl-2H-[1,2,4]triazol-3-yl)-phenol] | > 32 µM
Oc1ccc(F)cc1-c1nc(-c2ncccn2)n[nH]1 [Compound 561, 4-Fluoro-2-(5-pyrimidin-2-yl-2H-[1,2,4]triazol-3-yl)-phenol] | > 32 µM
COc1ccc(O)c(-c2nc(-c3ncccn3)n[nH]2)c1 [Compound 562, 4-Methoxy-2-(5-pyrimidin-2-yl-2H-[1,2,4]triazol-3-yl)-phenol] | > 32 µM
Oc1ccc(Cl)cc1-c1nc(-c2ncccn2)n[nH]1 [Compound 563, 4-Chloro-2-(5-pyrimidin-2-yl-2H-[1,2,4]triazol-3-yl)-phenol] | 6.4 µM
CCOc1cccc(-c2nc(-c3ncccn3)n[nH]2)c1O [Compound 564, 6-Ethoxy-2-(5-pyrimidin-2-yl-2H-[1,2,4]triazol-3-yl)-phenol] | > 32 µM
Oc1cc(OCc2ccccc2)ccc1-c1nc(-c2ncccn2)n[nH]1 [Compound 565, 5-Benzyloxy-2-(5-pyrimidin-2-yl-2H-[1,2,4]triazol-3-yl)-phenol] | 26 µM
Oc1ccc(Br)cc1-c1nc(-c2ncccn2)n[nH]1 [Compound 566, 4-Bromo-2-(5-pyrimidin-2-yl-2H-[1,2,4]triazol-3-yl)-phenol] | 5.9 µM
Cc1ccc(O)c(-c2nc(-c3ncccn3)n[nH]2)c1 [Compound 567, 4-Methyl-2-(5-pyrimidin-2-yl-2H-[1,2,4]triazol-3-yl)-phenol] | > 32 µM
COc1ccc(-c2nc(-c3ncccn3)n[nH]2)c(O)c1 [Compound 568, 5-Methoxy-2-(5-pyrimidin-2-yl-2H-[1,2,4]triazol-3-yl)-phenol] | > 32 µM
Oc1ccccc1-c1nc(-c2ncccn2)n[nH]1 [Compound 569, 2-(5-pyrimidin-2-yl-2H-[1,2,4]triazol-3-yl)-phenol] | > 32 µM
COc1cccc(-c2nc(-c3ncccn3)n[nH]2)c1O [Compound 570, 6-Methoxy-2-(5-pyrimidin-2-yl-2H-[1,2,4]triazol-3-yl)-phenol] | > 32 µM
CCN(CC)c1ccc(-c2nc(-c3ncccn3)n[nH]2)c(O)c1 [Compound 571, 5-Diethylamino-2-(5-pyrimidin-2-yl-2H-[1,2,4]triazol-3-yl)-phenol] | 18 µM
Oc1ccc(O)c(-c2nc(-c3ncccn3)n[nH]2)c1 [Compound 572, 4-Hydroxy-2-(5-pyrimidin-2-yl-2H-[1,2,4]triazol-3-yl)-phenol] | > 32 µM
Oc1ccc2ccccc2c1-c1nc(-c2ncccn2)n[nH]1 [Compound 573, 1-(5-pyrimidin-2-yl-2H-[1,2,4]triazol-3-yl)-naphthalen-2-ol] | 3.5 µM
Oc1c(-c2nc(-c3ncccn3)n[nH]2)ccc2ccccc12 [Compound 574, 2-(5-Pyrimidin-2-yl-2H-[1,2,4]triazol-3-yl)-naphthalen-1-ol] | > 32 µM
CC(C)(C)c1ccc(O)c(-c2nc(-c3cnccn3)n[nH]2)c1 [Compound 575, 4-tert-Butyl-2-(5-pyrazin-2-yl-2H-[1,2,4]triazol-3-yl)-phenol] | 9 µM
O=[N+]([O-])c1ccc(O)c(-c2nc(-c3cnccn3)n[nH]2)c1 [Compound 576, 4-Nitro-2-(5-pyrazin-2-yl-2H-[1,2,4]triazol-3-yl)-phenol] | 16 µM
Oc1ccc(F)cc1-c1nc(-c2cnccn2)n[nH]1 [Compound 577, 4-Fluoro-2-(5-pyrazin-2-yl-2H-[1,2,4]triazol-3-yl)-phenol] | 18 µM
COc1ccc(O)c(-c2nc(-c3cnccn3)n[nH]2)c1 [Compound 578, 4-Methoxy-2-(5-pyrazin-2-yl-2H-[1,2,4]triazol-3-yl)-phenol] | > 32 µM
Oc1ccc(Cl)cc1-c1nc(-c2cnccn2)n[nH]1 [Compound 579, 4-Chloro-2-(5-pyrazin-2-yl-2H-[1,2,4]triazol-3-yl)-phenol] | 5.8 µM
CCOc1cccc(-c2nc(-c3cnccn3)n[nH]2)c1O [Compound 580, 6-Ethoxy-2-(5-pyrazin-2-yl-2H-[1,2,4]triazol-3-yl)-phenol] | > 32 µM

SMILES | EC50
Oc1cc(OCc2ccccc2)ccc1-c1nc(-c2cnccn2)n[nH]1 [Compound 581, 5-Benzyloxy-2-(5-pyrazin-2-yl-2H-[1,2,4]triazol-3-yl)-phenol] | > 32 µM
Oc1ccc(Br)cc1-c1nc(-c2cnccn2)n[nH]1 [Compound 582, 4-Bromo-2-(5-pyrazin-2-yl-2H-[1,2,4]triazol-3-yl)-phenol] | 18 µM
Cc1ccc(O)c(-c2nc(-c3cnccn3)n[nH]2)c1 [Compound 583, 4-Methyl-2-(5-pyrazin-2-yl-2H-[1,2,4]triazol-3-yl)-phenol] | > 32 µM
COc1ccc(-c2nc(-c3cnccn3)n[nH]2)c(O)c1 [Compound 584, 5-Methoxy-2-(5-pyrazin-2-yl-2H-[1,2,4]triazol-3-yl)-phenol] | > 32 µM
Oc1ccccc1-c1nc(-c2cnccn2)n[nH]1 [Compound 585, 2-(5-pyrazin-2-yl-2H-[1,2,4]triazol-3-yl)-phenol] | > 32 µM
COc1cccc(-c2nc(-c3cnccn3)n[nH]2)c1O [Compound 586, 6-Methoxy-2-(5-pyrazin-2-yl-2H-[1,2,4]triazol-3-yl)-phenol] | > 32 µM
CCN(CC)c1ccc(-c2nc(-c3cnccn3)n[nH]2)c(O)c1 [Compound 587, 5-Diethylamino-2-(5-pyrazin-2-yl-2H-[1,2,4]triazol-3-yl)-phenol] | 23 µM
Oc1ccc(O)c(-c2nc(-c3cnccn3)n[nH]2)c1 [Compound 588, 4-Hydroxy-2-(5-pyrazin-2-yl-2H-[1,2,4]triazol-3-yl)-phenol] | > 32 µM
Oc1ccc2ccccc2c1-c1nc(-c2cnccn2)n[nH]1 [Compound 589, 1-(5-pyrazin-2-yl-2H-[1,2,4]triazol-3-yl)-naphthalen-2-ol] | 7 µM
Oc1c(Br)cc(Br)cc1-c1nc(-c2cnccn2)n[nH]1 [Compound 590, 2,4-Dibromo-6-(5-pyrazin-2-yl-2H-[1,2,4]triazol-3-yl)-phenol] | 14 µM
Oc1c(-c2nc(-c3cnccn3)n[nH]2)ccc2ccccc12 [Compound 591, 2-(5-pyrazin-2-yl-2H-[1,2,4]triazol-3-yl)-naphthalen-1-ol] | 16 µM
Nc1ccc(-c2n[nH]c(-c3cc(Br)ccc3O)n2)nc1 [Compound 592, 2-[5-(5-Amino-pyridin-2-yl)-2H-[1,2,4]triazol-3-yl]-4-bromo-phenol] | > 32 µM
CC(=O)Nc1ccc(-c2n[nH]c(-c3cc(Br)ccc3O)n2)nc1 [Compound 593, N-{6-[5-(5-Bromo-2-hydroxy-phenyl)-1H-[1,2,4]triazol-3-yl]-pyridin-3-yl}-acetamide] | 48.7 µM
COc1ccc(O)c(-c2nc(-c3ccc(N)cn3)n[nH]2)c1 [Compound 594, 2-[5-(5-Amino-pyridin-2-yl)-2H-[1,2,4]triazol-3-yl]-4-methoxy-phenol] | > 19 µM
COc1ccc(O)c(-c2nc(-c3ccc(NC(C)=O)cn3)n[nH]2)c1 [Compound 595, N-{6-[5-(5-methoxy-2-hydroxy-phenyl)-1H-[1,2,4]triazol-3-yl]-pyridin-3-yl}-acetamide] | 41.8 µM
Cn1nc(-c2ccccn2)nc1-c1cc(Br)ccc1O [Compound 596, 4-Bromo-2-(2-methyl-5-pyridin-2-yl-2H-[1,2,4]triazol-3-yl)-phenol] | 15 µM
Cn1nc(-c2ccccn2)nc1-c1cc([N+](=O)[O-])ccc1O [Compound 597, 4-Nitro-2-(2-methyl-5-pyridin-2-yl-2H-[1,2,4]triazol-3-yl)-phenol] | 11 µM
COc1ccc(O)c(-c2nc(-c3ccccn3)nn2C)c1 [Compound 598, 4-Methoxy-2-(2-methyl-5-pyridin-2-yl-2H-[1,2,4]triazol-3-yl)-phenol] | > 32 µM
Cn1nc(-c2ccccn2)nc1-c1cc(Cl)ccc1O [Compound 599, 4-Chloro-2-(2-methyl-5-pyridin-2-yl-2H-[1,2,4]triazol-3-yl)-phenol] | 12 µM
Cn1nc(-c2ccccn2)nc1-c1ccc(OCc2ccccc2)cc1O [Compound 600, 5-Benzyloxy-2-(2-methyl-5-pyridin-2-yl-2H-[1,2,4]triazol-3-yl)-phenol] | 5 µM
COc1ccc(-c2nc(-c3ccccn3)nn2C)c(O)c1 [Compound 601, 5-Methoxy-2-(2-methyl-5-pyridin-2-yl-2H-[1,2,4]triazol-3-yl)-phenol] | > 32 µM
Cn1nc(-c2ccccn2)nc1-c1ccccc1O [Compound 602, 2-(2-methyl-5-pyridin-2-yl-2H-[1,2,4]triazol-3-yl)-phenol] | > 32 µM
COc1cccc(-c2nc(-c3ccccn3)nn2C)c1O [Compound 603, 6-Methoxy-2-(2-methyl-5-pyridin-2-yl-2H-[1,2,4]triazol-3-yl)-phenol] | > 32 µM
Cn1nc(-c2ccccn2)nc1-c1cc(O)ccc1O [Compound 604, 4-Hydroxy-2-(2-methyl-5-pyridin-2-yl-2H-[1,2,4]triazol-3-yl)-phenol] | 37.6 µM

Source: US20050075375A1 (priority 2003, published 2005)
